The values that follow are results of earlier work, collected in article PMC7309225, “Synthesis, Biodistribution, and Radiation Dosimetry of a Novel mGluR5 Radioligand: ^18F-AZD9272” (ACS Chemical Neuroscience, 2020).

The subject of one data set is mGluR5. Set-up: method as in PMID 29608920. The conditions noted are these: 2TC, cited from earlier work.
Data set [1] deals with monoamine oxidase-B (MAO-B). Set-up: method as in PMID 23541825. Particulars: human brain stem, thalamus, amygdala, cerebellum, and ventral striatum; cited from earlier work.

The structures appear in SMILES notation. Read-outs that look alike come from different tables or passages of the source.

Regarding `N#Cc1cc(F)cc(-c2nc(-c3ccc(F)cn3)no2)c1` [^11C-AZD9272], the figures for the VT in the data set with mGluR5 (occipital cortex) and in the data set with mGluR5 (ventral striatum) were 6.5 mL/cm^3 and 18.0 mL/cm^3, respectively. The “MAO-B component of binding” value in data set [1] is listed as 90–95%.
